The record followed here is ChEMBL document CHEMBL1201862, “PubChem BioAssay data set” (2004).

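Five concentrations, 48 hours, 96-well plates. GI50 marks 50% less growth.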 Active and inactive are the calls of the source. Rule as the data show it: active = GI50 up to about 1.1 µM and inactive = higher. Where only a bound is given, the exact number is not on record here.

Some test systems named below: UACC-257; HOP-62; SF-268; SK-OV-3; M14; HT-29; PC-3; SK-MEL-5; HOP-92; UO-31; SK-MEL-28; SF-539; OVCAR-8; NCI-H522; UACC-62; Malme-3M; T47D; NCI-H23; OVCAR-5; ACHN.
Common to all, as to experiment: NCI anticancer screen, dose series, 48 h

For the molecule `COc1ccc(/C=C2/CSC/C(=C/c3ccc(OC)c(OC)c3)C2=O)cc1OC`, the GI50 was 4.11 µM (inactive) with UACC-257; 3.67 µM (inactive) in the assay on HOP-62; 1.99 µM (inactive) in the assay on SF-268; 6.73 µM (inactive) in the assay with SK-OV-3; 3.04 µM (inactive) in the assay on M14; 1.09 µM (active) in the assay on HT-29. In addition, the GI50 was 3.03 µM (inactive) in the assay with PC-3; 2.44 µM (inactive) with SK-MEL-5; 8.93 µM (inactive) in the assay on HOP-92; 4.65 µM (inactive) in the assay on UO-31; 2.94 µM (inactive) in the assay with SK-MEL-28; 2.03 µM (inactive) with SF-539. Besides, the GI50 in the assay with OVCAR-8 is 0.664 µM (active); with NCI-H522 it was 2.26 µM (inactive); in the assay on UACC-62 it was 1.69 µM (inactive); with Malme-3M, 4.71 µM (inactive); in the assay with T47D, 2.21 µM (inactive); in the assay with NCI-H23, 2.3 µM (inactive). For the same molecule, the GI50 was 4.62 µM (inactive) with OVCAR-5 and 2.31 µM (inactive) in the assay on ACHN.

`Cc1cc(NCC2CC/C(=C\C=C\c3ccccc3)C2=O)no1` (centres undefined): the GI50 with UACC-257 is 57.8 µM (inactive); with HOP-62, > 100 µM (inactive); in the assay with SF-268, > 100 µM (inactive); in the assay with SK-OV-3, > 100 µM (inactive); in the assay on M14, > 100 µM (inactive); in the assay with HT-29 it was > 100 µM (inactive). The GI50 was > 100 µM (inactive) with PC-3; 94.4 µM (inactive) in the assay with SK-MEL-5; 78.5 µM (inactive) in the assay on HOP-92; 51.3 µM (inactive) in the assay with UO-31; > 100 µM (inactive) in the assay with SK-MEL-28; > 100 µM (inactive) in the assay on SF-539. In addition, the GI50 in the assay with OVCAR-8 is > 100 µM (inactive); with NCI-H522 it was > 100 µM (inactive); in the assay on UACC-62, 32.1 µM (inactive); in the assay with Malme-3M, > 100 µM (inactive); in the assay on T47D, > 100 µM (inactive); in the assay on NCI-H23, > 100 µM (inactive). In addition, the GI50 with OVCAR-5 is > 100 µM (inactive); in the assay with ACHN it was 93.8 µM (inactive).

Regarding `CC1CC(=O)Nc2nc3ccccc3n21` (centres undefined), the GI50 with UACC-257, with HOP-62, in the assay on SF-268, with SK-OV-3, in the assay with M14 and with HT-29 was > 100 µM (inactive) each time. For the same molecule, the GI50 in the assay on PC-3, in the assay on SK-MEL-5, in the assay with HOP-92, in the assay with UO-31, in the assay with SF-539 and in the assay with OVCAR-8 was > 100 µM (inactive) each time. The GI50 with NCI-H522, with UACC-62, in the assay with Malme-3M, in the assay with T47D, in the assay with NCI-H23 and in the assay on OVCAR-5 was > 100 µM (inactive) each time. Further, in the assay on ACHN, the GI50 is > 100 µM (inactive).

`C1=N\CCNCC/N=C/c2ccccc2OCc2cccc(n2)COc2ccccc2/1`: the GI50 is 29.2 µM (inactive) in the assay on UACC-257; 12.4 µM (inactive) in the assay on HOP-62; 12.9 µM (inactive) with SF-268; 43.3 µM (inactive) with SK-OV-3; 8.02 µM (inactive) with M14; 10.7 µM (inactive) with HT-29. Besides, the GI50 is 19.2 µM (inactive) in the assay on PC-3; 12.6 µM (inactive) with SK-MEL-5; 26.1 µM (inactive) in the assay with HOP-92; 9.12 µM (inactive) with UO-31; 7.85 µM (inactive) with SK-MEL-28; 2.72 µM (inactive) in the assay with SF-539. For the same molecule, the GI50 was 9.44 µM (inactive) in the assay on OVCAR-8; 27.5 µM (inactive) in the assay with NCI-H522; 6.15 µM (inactive) with UACC-62; 11.8 µM (inactive) in the assay with Malme-3M; 17.2 µM (inactive) with T47D; 12.9 µM (inactive) with NCI-H23. In addition, the GI50 in the assay with OVCAR-5 is 37.5 µM (inactive); with ACHN it was 31.2 µM (inactive).

For the molecule `O=C1OS2(OCc3cccc4cccc2c34)c2ccccc21` (centres undefined), the GI50 with UACC-257, in the assay with HOP-62, in the assay on SF-268, in the assay on SK-OV-3, in the assay with M14 and with HT-29 was > 100 µM (inactive) in each case. The GI50 in the assay with PC-3, in the assay with SK-MEL-5, with HOP-92, with UO-31, in the assay with SK-MEL-28 and with SF-539 was > 100 µM (inactive) throughout. The GI50 in the assay with NCI-H522 is 50.8 µM (inactive); in the assay with UACC-62, > 100 µM (inactive); with Malme-3M it was > 100 µM (inactive); with T47D it was > 100 µM (inactive); with NCI-H23, > 100 µM (inactive); in the assay on OVCAR-5, > 100 µM (inactive). In addition, in the assay with ACHN, the GI50 is > 100 µM (inactive).

For the molecule `CN(C)CCCNc1ccc2nnn3c4ccc(OC(=O)c5ccc([N+](=O)[O-])cc5)cc4c(=O)c1c23`, the GI50 is 11.7 µM (inactive) in the assay with UACC-257; 3.54 µM (inactive) in the assay with HOP-62; 4.09 µM (inactive) in the assay on SF-268; 6.98 µM (inactive) with SK-OV-3; 13 µM (inactive) with M14; 2.55 µM (inactive) in the assay on HT-29. Further, the GI50 was 2.74 µM (inactive) with PC-3; 10.6 µM (inactive) with HOP-92; 4.67 µM (inactive) in the assay with UO-31; 13.7 µM (inactive) in the assay on SK-MEL-28; 2.9 µM (inactive) in the assay on SF-539; 2.26 µM (inactive) with OVCAR-8. For the same molecule, the GI50 in the assay on NCI-H522 is 1.32 µM (inactive); in the assay with UACC-62, 15.9 µM (inactive); in the assay on Malme-3M it was 4.92 µM (inactive); in the assay with T47D, 24.2 µM (inactive); with NCI-H23, 6.73 µM (inactive); in the assay with OVCAR-5, 11.5 µM (inactive). In addition, the GI50 in the assay on ACHN is 1.5 µM (inactive).

As for `CCCCCCCCCCCCC(O)C(=O)O` (centres undefined), the GI50 in the assay on UACC-257, in the assay on HOP-62, with SK-OV-3, in the assay on M14, with HT-29 and in the assay on PC-3 was > 100 µM (inactive) in each case. For the same molecule, the GI50 in the assay with SK-MEL-5, with HOP-92, with UO-31, in the assay with SF-539, with OVCAR-8 and in the assay on NCI-H522 was > 100 µM (inactive) throughout. For the same molecule, the GI50 in the assay on UACC-62, in the assay on Malme-3M, in the assay with T47D, in the assay on NCI-H23, in the assay with OVCAR-5 and with ACHN was > 100 µM (inactive) in each case.

In the case of `Cc1[nH]c(=O)[nH]c(=S)c1C(=O)NC(C)(CO)CO`, the GI50 in the assay with UACC-257, in the assay with HOP-62, with SF-268, in the assay with SK-OV-3, with M14 and in the assay with HT-29 was > 100 µM (inactive) throughout. Further, the GI50 in the assay on PC-3, in the assay on SK-MEL-5, in the assay with HOP-92, in the assay on UO-31, in the assay with SK-MEL-28 and with SF-539 was > 100 µM (inactive) in each case. The GI50 with OVCAR-8, in the assay with NCI-H522, in the assay with UACC-62, in the assay on Malme-3M, in the assay on T47D and in the assay on NCI-H23 was > 100 µM (inactive) each time. The GI50 in the assay on OVCAR-5 and in the assay with ACHN was > 100 µM (inactive) in each case.

As to `N#C[BH2-][n+]1cn(C2CC(OP(=O)(O)OCC3OC(n4cnc5c(N)ncnc54)CC3O)C(CO)O2)c2nc(N)[nH]c(=O)c21` (centres undefined), the GI50 in the assay with UACC-257, in the assay with HOP-62, in the assay on SF-268, with SK-OV-3, in the assay with HT-29 and in the assay with PC-3 was > 100 µM (inactive) each time. In addition, the GI50 in the assay on SK-MEL-5, in the assay on HOP-92, in the assay on UO-31, with SK-MEL-28, with SF-539 and with OVCAR-8 was > 100 µM (inactive) each time. The GI50 in the assay with NCI-H522, in the assay with UACC-62, in the assay with Malme-3M, with T47D, in the assay with NCI-H23 and in the assay on OVCAR-5 was > 100 µM (inactive) throughout. The GI50 in the assay on ACHN is > 100 µM (inactive).

For the molecule `C=C1C(=O)C=C2C=C3C(=O)C(C)(C)C[C@]3(O)C12C` (some centres undefined), the GI50 is 2.93 µM (inactive) in the assay on UACC-257; 22.5 µM (inactive) in the assay on HOP-62; 5.65 µM (inactive) in the assay with SF-268; 19.3 µM (inactive) in the assay with SK-OV-3; 1.73 µM (inactive) in the assay on M14; 3.27 µM (inactive) with HT-29. Moreover, the GI50 was 3.14 µM (inactive) with PC-3; 6.62 µM (inactive) in the assay with SK-MEL-5; 1.59 µM (inactive) in the assay on HOP-92; 7.11 µM (inactive) with UO-31; 2.52 µM (inactive) in the assay on SK-MEL-28; > 43.2 µM (inactive) in the assay on SF-539. The GI50 with OVCAR-8 is 8.57 µM (inactive); with NCI-H522, 1.61 µM (inactive); with UACC-62, 8.39 µM (inactive); with Malme-3M, 1.83 µM (inactive); in the assay with T47D, 2.15 µM (inactive); with NCI-H23, 4.81 µM (inactive). For the same molecule, the GI50 is 9.55 µM (inactive) with OVCAR-5 and 2.23 µM (inactive) in the assay with ACHN.
